Results reported in the supplement of paper PMC8497498.

Key:
[1] = tested on: Plasmodium falciparum 3D7 asexual blood stage; assay: EC50 asexual blood stage growth; conditions: serum: 0.5% AlbuMAX
Description: (§1)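 The Reference Compound Library was tested by 10-point 3-fold dose response against P. cynomolgi Berok K4 asexual blood stages (SYBR proliferation assay, mefloquine background control). Culture medium contained 0.5% AlbuMAX or 20% M. fascicularis serum. P. falciparum 3D7 was tested in a 72-h SYBR Green assay with 0.5% AlbuMAX. Values are geometric mean EC50 over independent experiments; 10 uM is the top dose.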

[2] = tested on: Plasmodium cynomolgi Berok K4 asexual blood stage; assay: EC50 asexual blood stage growth
Description: as §1

[3] = tested on: primary human hepatocytes; assay: CC20 hepatic nuclei (20% reduction); higher = less toxic; conditions: hepatocyte lot: BGW
Description: (§2)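 Dose-response of P. vivax liver stages in primary human hepatocytes, with 8 points (10 uM-[…], v1) or 12 points in duplicate (50 uM-280 pM, v2). Read-out is high-content imaging of schizont net growth area, hypnozoite quantity and hepatic nuclei. EC50 and CC20 (20% nuclei loss) were fitted in CDD Vault from the highest-quality independent experiment; toxic-dose bell-shaped points were masked. '>' marks the highest concentration with less than 50% activity, and ND means a non-sigmoidal curve.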

[4] = tested on: Plasmodium vivax liver stage (primary human hepatocyte culture); conditions: hepatocyte lot: BGW
Description: as §2

[5] = tested on: Plasmodium vivax liver stage (primary human hepatocyte culture); assay: maximum inhibition of schizont net growth area; higher = more active; conditions: hepatocyte lot: BGW
Description: as §2

[6] = serum: 20% M. fascicularis serum
[7] = P. vivax isolate: Pv923, assay mode: Radical Cure, 8-day (treatment from day 5 post-infection)
[8] = P. vivax isolate: Pv914, assay mode: Prophylactic, 6-day
[9] = P. vivax isolate: Pv922, assay mode: Radical Cure, 8-day (treatment from day 5 post-infection)
[10] = P. vivax isolate: Pv728, assay mode: Radical Cure, 8-day (treatment from day 5 post-infection)

`CC(C)(C)NCc1cc(Nc2ccnc3cc(Cl)ccc23)ccc1F` was tested, and the “EC50 asexual blood stage growth” value [1] was 9.8 nM, the “EC50 asexual blood stage growth” value ([2]; serum: 0.5% AlbuMAX) was 77.4 nM and the “EC50 asexual blood stage growth” value [2, 6] was 38.8 nM.
With `CC(C)(C)NCc1cc(C(C)(C)C)cc(-c2ccc(Cl)cc2)c1O` the “EC50 asexual blood stage growth” value [1] was 14.1 nM, the “EC50 asexual blood stage growth” value ([2]; serum: 0.5% AlbuMAX) was 2 nM and the “EC50 asexual blood stage growth” value [2, 6] was 6.8 nM.
In the case of `Cc1ncc(-c2ccnc(Nc3ccc(S(C)(=O)=O)cc3)n2)n1C(C)C`, the CC20 hepatic nuclei [3, 7] is reported as 1820 nM, the EC50 hypnozoite quantity [4, 7] is reported as over 50000 nM and the “EC50 schizont net growth area” value [4, 7] is reported as over 50000 nM. It also gave a maximum inhibition [5, 7] of 69.4%.
With `Cc1c(Oc2cnc(C(=O)N3CC(C)(O)C3)cn2)ccc2c1B(O)OC2` the CC20 hepatic nuclei [3, 8] was over 10000 nM, the EC50 hypnozoite quantity [4, 8] was over 1110 nM and the “EC50 schizont net growth area” value [4, 8] was 1630 nM. The maximum inhibition [5, 8] was 99.7%.
For `Cc1cc(Nc2ccc(C(F)(F)F)nc2)n2nc(C(C)(F)F)nc2n1`, the CC20 hepatic nuclei [3, 8] was over 10000 nM, the EC50 hypnozoite quantity [4, 8] was over 10000 nM and the “EC50 schizont net growth area” value [4, 8] was 325 nM. For the same molecule, the maximum inhibition [5, 8] was 98.8%.
With `CCc1cc(=O)n(C)c(SC(C)C(=O)Nc2ccc(F)cc2)n1` (stereo not drawn) the CC20 hepatic nuclei [3, 7] was over 50000 nM, the EC50 hypnozoite quantity [4, 7] was over 50000 nM and the “EC50 schizont net growth area” value [4, 7] was over 16700 nM. For the same molecule, the maximum inhibition [5, 7] was 87.6%.
With `CN(C)C(=S)NN=C1C(=O)Nc2ccccc21` the CC20 hepatic nuclei [3, 7] was 40300 nM, the “EC50 schizont net growth area” value [4, 7] was over 16700 nM and the maximum inhibition [5, 7] was 66.1%.
With `COc1cccc(C=Cc2nc(=O)c3ccccc3o2)c1OC` the CC20 hepatic nuclei [3, 8] was over 10000 nM, the EC50 hypnozoite quantity [4, 8] was over 10000 nM and the maximum inhibition [5, 8] was 62.6%.
`CS(=O)(=O)c1cccc(-c2cnc3[nH]cc(-c4ccc(CCC(=O)O)cc4)c3c2)c1` was tested, and the CC20 hepatic nuclei [3, 7] was over 50000 nM, the EC50 hypnozoite quantity [4, 7] was over 50000 nM and the “EC50 schizont net growth area” value [4, 7] was 418 nM. The maximum inhibition [5, 7] was 99.2%.
In the case of `Cc1sc2ncnc(Sc3nnc(N)s3)c2c1C`, the CC20 hepatic nuclei [3, 9] is reported as over 16700 nM, the EC50 hypnozoite quantity [4, 9] is reported as over 50000 nM and the “EC50 schizont net growth area” value [4, 9] is reported as over 5560 nM. The maximum inhibition [5, 9] was 86.8%.
`O=C(Nc1ccc(N2CCNCC2)cc1)c1ccn2ncc(-c3cccc(Cl)c3)c2n1` was tested, and the CC20 hepatic nuclei [3, 7] was over 1850 nM, the EC50 hypnozoite quantity [4, 7] was over 50000 nM and the “EC50 schizont net growth area” value [4, 7] was over 50000 nM. For the same molecule, the maximum inhibition [5, 7] was 45.8%.
`O=C(Nc1cc(C(F)(F)F)cc(C(F)(F)F)c1)Nc1ccc(Cl)c(Cl)c1` showed a CC20 hepatic nuclei [3, 9] of over 5560 nM, an EC50 hypnozoite quantity [4, 9] of over 50000 nM and a maximum inhibition [5, 9] of 51.2%.
`CN(Cc1cnc2nc(N)nc(N)c2n1)c1ccc(C(=O)N[C@@H](CCC(=O)O)C(=O)O)cc1` (racemic) [Methotrexate (+/-)] was tested, and the CC20 hepatic nuclei [3, 8] was over 10000 nM, the EC50 hypnozoite quantity [4, 8] was over 10000 nM and the “EC50 schizont net growth area” value [4, 8] was 42.8 nM. It also gave a maximum inhibition [5, 8] of 99.1%.
`Cc1nn(C)c(NC(=O)Cn2c(C(C)C)nc3ccccc32)c1-c1ccc(Cl)cc1F` [21A092] was tested, and the “EC50 asexual blood stage growth” value [1] was 14.8 nM, the “EC50 asexual blood stage growth” value ([2]; serum: 0.5% AlbuMAX) was 7 nM and the “EC50 asexual blood stage growth” value [2, 6] was 79.4 nM.
With `Cc1c(Oc2cnc(C(=O)N3CC(C)(O)C3)cn2)ccc2c1B(O)OC2` [AN762] the “EC50 asexual blood stage growth” value [1] was 101 nM, the “EC50 asexual blood stage growth” value ([2]; serum: 0.5% AlbuMAX) was 1750 nM and the “EC50 asexual blood stage growth” value [2, 6] was 2200 nM.
`Cc1c(CCO)sc[n+]1CCCCCCCCCCCC[n+]1csc(CCO)c1C` [Albitiazolium] was tested, and the “EC50 asexual blood stage growth” value [1] was 14.4 nM, the “EC50 asexual blood stage growth” value ([2]; serum: 0.5% AlbuMAX) was 367 nM and the “EC50 asexual blood stage growth” value [2, 6] was 144 nM.
For `c1cc(C2CCC3(CC2)OOC2(O3)C3CC4CC(C3)CC2C4)ccc1OCCN1CCOCC1` (stereo not drawn) [Artefenomel, OZ439], the CC20 hepatic nuclei [3, 10] was over 16700 nM, the EC50 hypnozoite quantity [4, 10] was over 50000 nM and the “EC50 schizont net growth area” value [4, 10] was 6890 nM. For the same molecule, the maximum inhibition [5, 10] was 80.3%.
`c1cc(C2CCC3(CC2)OOC2(O3)C3CC4CC(C3)CC2C4)ccc1OCCN1CCOCC1` (stereo not drawn) [Artefenomel] was tested, and the “EC50 asexual blood stage growth” value [1] was 42.4 nM, the “EC50 asexual blood stage growth” value ([2]; serum: 0.5% AlbuMAX) was 3.4 nM and the “EC50 asexual blood stage growth” value [2, 6] was 2.3 nM.
